Assay results as given in ChEMBL document CHEMBL1201862, “PubChem BioAssay data set” (2004).
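All cell lines were grown in 96-well plates and treated with compound for 48 hours. GI50 is the concentration that inhibits growth by half.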 Activity calls are given as the source filed them. Rule as the data show it: active = GI50 up to about 1.1 µM and inactive = higher.

Columns and labels:
Assay in all cases: inhibition of tumour cell growth, NCI panel, 48 h
[1] = tested on: OVCAR-4
[2] = tested on: RXF 393
[3] = tested on: UACC-62
[4] = tested on: SF-268
[5] = tested on: COLO 205
[6] = tested on: OVCAR-8
[7] = tested on: SK-OV-3
[8] = tested on: ACHN
[9] = tested on: NCI-H23
[10] = tested on: OVCAR-3
[11] = tested on: HCT-116
[12] = tested on: SF-539
[13] = tested on: MCF7
[14] = tested on: SK-MEL-5
[15] = tested on: SK-MEL-28
[16] = tested on: SNB-19
[17] = tested on: UO-31
[18] = tested on: K562
[19] = tested on: NCI-H460

Structure (SMILES)	GI50 [1]	GI50 [2]	GI50 [3]	GI50 [4]	GI50 [5]	GI50 [6]	GI50 [7]	GI50 [8]	GI50 [9]	GI50 [10]	GI50 [11]	GI50 [12]	GI50 [13]	GI50 [14]	GI50 [15]	GI50 [16]	GI50 [17]	GI50 [18]	GI50 [19]
O=[N+]([O-])C1=Cc2c(O)ccc(O)c2C2OC=CC12 (stereo unspecified)	16.4 µM (inactive)	15.2 µM (inactive)	6.81 µM (inactive)	19.8 µM (inactive)	27 µM (inactive)	21.4 µM (inactive)	> 60.4 µM (inactive)	14.8 µM (inactive)	15.5 µM (inactive)	7.94 µM (inactive)	15.9 µM (inactive)	22.2 µM (inactive)	13.6 µM (inactive)	12.4 µM (inactive)	44.8 µM (inactive)	23.9 µM (inactive)	14.6 µM (inactive)	9.44 µM (inactive)	19.7 µM (inactive)
CC[C@@]1(O)C(=O)OCc2c1cc1n(c2=O)Cc2c-1nc1ccc(O)cc1c2CC[Si](C)(C)C	0.0291 µM (active)	0.00279 µM (active)	< 0.001 µM (active)	< 0.001 µM (active)	0.149 µM (active)	0.00716 µM (active)	< 0.001 µM (active)	< 0.001 µM (active)	< 0.001 µM (active)	0.0247 µM (active)	< 0.001 µM (active)	< 0.001 µM (active)	< 0.001 µM (active)	0.00116 µM (active)	0.0402 µM (active)	< 0.001 µM (active)	0.00497 µM (active)	0.00839 µM (active)	< 0.001 µM (active)
COC1=CC(=O)C(C2CC(=O)c3c(O)cc(O)cc3O2)=CC1=O (stereo unspecified)	17.6 µM (inactive)	19.1 µM (inactive)	16.4 µM (inactive)	20.7 µM (inactive)	17.9 µM (inactive)	25.9 µM (inactive)	36.8 µM (inactive)	15.9 µM (inactive)	20.5 µM (inactive)	18.5 µM (inactive)	16.1 µM (inactive)	20.7 µM (inactive)	22.9 µM (inactive)	16.8 µM (inactive)	16.9 µM (inactive)	25 µM (inactive)	18 µM (inactive)	5.86 µM (inactive)	23 µM (inactive)
COP(=O)(OC)C(O)/C=C(\Cl)c1ccc(Cl)cc1 (stereo unspecified)	37.2 µM (inactive)	78.2 µM (inactive)	56 µM (inactive)	65.2 µM (inactive)	> 100 µM (inactive)	23.9 µM (inactive)	> 100 µM (inactive)	85.1 µM (inactive)	21.2 µM (inactive)	19.1 µM (inactive)	18.4 µM (inactive)	> 100 µM (inactive)	96.4 µM (inactive)	23.7 µM (inactive)	> 100 µM (inactive)	75.5 µM (inactive)	71 µM (inactive)	43.5 µM (inactive)	> 100 µM (inactive)
Nc1ccc(Oc2ccc(C3(c4ccc(Oc5ccc(N)c(O)c5)cc4)C4CC5CC(C4)CC3C5)cc2)cc1O	2.43 µM (inactive)	1.73 µM (inactive)	2.69 µM (inactive)	1.53 µM (inactive)	0.484 µM (active)	1.7 µM (inactive)	2.45 µM (inactive)	1.82 µM (inactive)	1.91 µM (inactive)	1.56 µM (inactive)	1.5 µM (inactive)	1.12 µM (active)	1.67 µM (inactive)	1.58 µM (inactive)	1.84 µM (inactive)	2.4 µM (inactive)	1.92 µM (inactive)	2.04 µM (inactive)	1.73 µM (inactive)
CSC(=S)CC(O)[C@@H]1CC2c3ccccc3C1c1ccccc12 (stereo partly specified)	12.1 µM (inactive)	2.19 µM (inactive)	12.1 µM (inactive)	15.4 µM (inactive)	18.1 µM (inactive)	14.9 µM (inactive)	15.3 µM (inactive)	13.6 µM (inactive)	7.11 µM (inactive)	8.51 µM (inactive)	8.11 µM (inactive)	17.9 µM (inactive)	13.9 µM (inactive)	13.4 µM (inactive)	21.7 µM (inactive)	11.2 µM (inactive)	11.7 µM (inactive)	4.56 µM (inactive)	14.6 µM (inactive)
CC(C)(C)OC(=O)C(C1NC(C(=O)O)C(C)(C)S1)N1C(=O)c2ccccc2C1=O (stereo unspecified)	> 100 µM (inactive)	> 100 µM (inactive)	> 100 µM (inactive)	> 100 µM (inactive)	> 100 µM (inactive)	> 100 µM (inactive)	> 100 µM (inactive)	> 100 µM (inactive)	> 100 µM (inactive)	> 100 µM (inactive)	> 100 µM (inactive)	> 100 µM (inactive)	> 100 µM (inactive)	> 100 µM (inactive)	> 100 µM (inactive)	> 100 µM (inactive)	> 100 µM (inactive)	> 100 µM (inactive)	> 100 µM (inactive)
O=C(NCCCCCCCCNC(=O)c1cc(-c2ccccc2)nc2ccccc12)c1cc(-c2ccccc2)nc2ccccc12	> 100 µM (inactive)	2.48 µM (inactive)	> 100 µM (inactive)	68.9 µM (inactive)	> 100 µM (inactive)	94 µM (inactive)	> 100 µM (inactive)	> 100 µM (inactive)	> 100 µM (inactive)	> 100 µM (inactive)	> 100 µM (inactive)	71.1 µM (inactive)	> 100 µM (inactive)	> 100 µM (inactive)	> 100 µM (inactive)	64.9 µM (inactive)	> 100 µM (inactive)	> 100 µM (inactive)	> 100 µM (inactive)
COC(=O)c1ccc(/C=C2\Oc3cc(O)ccc3C2=O)cc1	62.8 µM (inactive)	27.9 µM (inactive)	> 100 µM (inactive)	66.1 µM (inactive)	> 100 µM (inactive)	61.5 µM (inactive)	> 100 µM (inactive)	31.7 µM (inactive)	42.3 µM (inactive)	53.3 µM (inactive)	63.5 µM (inactive)	> 100 µM (inactive)	38.5 µM (inactive)	67 µM (inactive)	72.8 µM (inactive)	69.8 µM (inactive)	46.3 µM (inactive)	47.8 µM (inactive)	> 100 µM (inactive)
CCOC(=O)CCC(NC(=O)c1ccc(OCc2nc3ccccc3n3cccc23)cc1)C(=O)OCC (stereo unspecified)	59.7 µM (inactive)	36.6 µM (inactive)	> 100 µM (inactive)	49.3 µM (inactive)	> 100 µM (inactive)	33.5 µM (inactive)	> 100 µM (inactive)	54.5 µM (inactive)	29.9 µM (inactive)	63.7 µM (inactive)	36.3 µM (inactive)	46.8 µM (inactive)	39.2 µM (inactive)	93.3 µM (inactive)	> 100 µM (inactive)	55.5 µM (inactive)	> 100 µM (inactive)	16.5 µM (inactive)	> 100 µM (inactive)
c1ncc(C23C4C5C6C4C2C6C53)[nH]1 (stereo unspecified)	> 100 µM (inactive)	> 100 µM (inactive)	> 100 µM (inactive)	> 100 µM (inactive)	> 100 µM (inactive)	> 100 µM (inactive)	> 100 µM (inactive)	> 100 µM (inactive)	> 100 µM (inactive)	> 100 µM (inactive)	> 100 µM (inactive)	> 100 µM (inactive)	> 100 µM (inactive)	> 100 µM (inactive)	> 100 µM (inactive)	> 100 µM (inactive)	> 100 µM (inactive)	> 100 µM (inactive)	> 100 µM (inactive)
CC(C(=O)n1ccnc1)N1c2ccccc2Sc2ccccc21 (stereo unspecified)	> 100 µM (inactive)	> 100 µM (inactive)	> 100 µM (inactive)	98.2 µM (inactive)	79.3 µM (inactive)	> 100 µM (inactive)	97.7 µM (inactive)	83.2 µM (inactive)	78.7 µM (inactive)	38.5 µM (inactive)	> 100 µM (inactive)	> 100 µM (inactive)	53.1 µM (inactive)	35 µM (inactive)	> 100 µM (inactive)	> 100 µM (inactive)	70.1 µM (inactive)	91.2 µM (inactive)	92 µM (inactive)
COc1ccccc1N1C(=O)/C(=C\c2cccc(Oc3ccccc3)c2)SC1c1ccccc1 (stereo unspecified)	30.6 µM (inactive)	56.9 µM (inactive)	5.75 µM (inactive)	38 µM (inactive)	15.3 µM (inactive)	31.3 µM (inactive)	47.4 µM (inactive)	35.5 µM (inactive)	18.3 µM (inactive)	27.7 µM (inactive)	16.5 µM (inactive)	34.5 µM (inactive)	21.5 µM (inactive)	14.4 µM (inactive)	46.9 µM (inactive)	31 µM (inactive)	51.3 µM (inactive)	15 µM (inactive)	49 µM (inactive)
CC(NNC(=O)c1cc[n+]([BH2-]C#N)cc1)c1ccc(Cl)c(Cl)c1 (stereo unspecified)	30.9 µM (inactive)	38.5 µM (inactive)	29.7 µM (inactive)	39.6 µM (inactive)	18.9 µM (inactive)	42.8 µM (inactive)	27 µM (inactive)	24.3 µM (inactive)	20.7 µM (inactive)	26.9 µM (inactive)	32.1 µM (inactive)	38.9 µM (inactive)	26.9 µM (inactive)	19.7 µM (inactive)	40.8 µM (inactive)	38.3 µM (inactive)	30 µM (inactive)	34.9 µM (inactive)	27.2 µM (inactive)
